# Structures can show the parent of a compound that is named as a salt. Peptide text beside a SMILES is read from it. * marks the point of attachment. Cbz = O=C(OCc1ccccc1)*; CH2F = FC*
# System: PRKACA-PRKAR2A interaction (SmBiT-PRKACA / LgBiT-PRKAR2A), protein kinase A
# Set-up: NanoLuc complementation counter-screen in cell extract, PRKACA with PRKAR2A, loss of luminescence, detects NanoLuc interference
# Details: 0.5 h, 20 µM; inhibitor
row,Structure (SMILES),Inh (PKA) [%]
1,"CC(=O)Nc1ccc(OC[C@](C)(O)C(=O)Nc2ccc([N+](=O)[O-])c(C(F)(F)F)c2)cc1 [UM0141445:01, Andarine]",7.113

# Same assay, conditions: counter-screen for NanoLuc interference, 0.5 h, 20 µM, inhibitor, Inh (PKA)
row,Structure (SMILES),Inh (PKA) [%]
1,"CN1CCN(c2ccc3nc(-c4c(N)c5c(F)cccc5[nH]c4=O)[nH]c3c2)CC1 [UM0141446:01, Dovitinib (TKI-258, CHIR-258)]",5.935

# Same assay, conditions: counter-screen for NanoLuc interference; 0.5 h, 20 µM; inhibitor
row,Structure (SMILES),Inh (PKA) [%]
1,"O=C(O)CCc1ccc(NCc2cccc(Oc3ccccc3)c2)cc1 [UM0141410:01, GW9508]",28.45
2,"CC[C@@H]([C@H](C)O)n1ncn(-c2ccc(N3CCN(c4ccc(OC[C@@H]5CO[C@@](Cn6cncn6)(c6ccc(F)cc6F)C5)cc4)CC3)cc2)c1=O [UM0141411:01, Posaconazole]",3.84
3,"C[C@H](Nc1ncnc2nc[nH]c12)c1cc2cccc(Cl)c2c(=O)n1-c1ccccc1 [UM0141412:01, IPI-145 (INK1197)]",8.901
4,"CC(C)OC(=O)OCOP(=O)(CO[C@H](C)Cn1cnc2c(N)ncnc21)OCOC(=O)OC(C)C [UM0141413:01, Tenofovir Disoproxil Fumarate]",0.7211
5,"CCN1CCN(Cc2ccc(Nc3ncc(F)c(-c4cc(F)c5nc(C)n(C(C)C)c5c4)n3)nc2)CC1 [UM0141414:01, LY2835219]",8.649
6,"CCOc1cc2ncc(C#N)c(Nc3ccc(F)c(Cl)c3)c2cc1NC(=O)/C=C/CN(C)C [UM0141415:01, Pelitinib (EKB-569)]",20
7,"C=CC(=O)Nc1cc2c(Nc3ccc(F)c(Cl)c3)ncnc2cc1OCCCN1CCOCC1 [UM0141416:01, Canertinib (CI-1033)]",5.945
8,"Oc1nc(-c2ccc(C(F)(F)F)cc2)nc2c1CSCC2 [UM0141417:01, XAV-939]",15.47
9,"COc1cc2c(Oc3ccc4[nH]c(C)cc4c3F)ncnc2cc1OCCCN1CCCC1 [UM0141418:01, Cediranib (AZD217)]",13.87
10,"COC(=O)C[C@H](NC(=O)[C@H](C)NC(=O)[C@@H](NC(=O)OCc1ccccc1)C(C)C)C(=O)CF [UM0141421:01, Z-VAD-FMK] (Cbz-Val-Ala-Asp(OMe)-CH2F)",1.417
11,"COC(=O)CC(NC(=O)OC(C)(C)C)C(=O)CF [UM0141423:01, Boc-D-FMK]",1.796
12,"Nc1nc(OCc2cc(Br)cs2)c2[nH]cnc2n1 [UM0141425:01, Lomeguatrib]",7.16
13,"O=C(O)C(Cc1c[nH]c2ccccc12)N1C(=O)c2ccccc2C1=O (stereo not drawn) [UM0141426:01, RG 108]",1.344
14,"COC(=O)CC[C@H](NC(=O)[C@H](CC(=O)OC)NC(=O)OCc1ccccc1)C(=O)N[C@H](C(=O)N[C@@H](CC(=O)OC)C(=O)CF)C(C)C [UM0141427:01, Z-DEVD-FMK]",1.254
15,"COC(=O)C[C@H](NC(=O)[C@H](CCSC)NC(=O)[C@H](CCC(N)=O)NC(=O)[C@H](CC(=O)OC)NC(=O)OCc1ccccc1)C(=O)CF [UM0141428:01, Z-DQMD-FMK] (Cbz-D(OMe)QMD(OMe)-CH2F)",1.642
16,"COC(=O)C[C@H](NC(=O)[C@H](C)NC(=O)[C@@H](NC(=O)[C@H](CC(=O)OC)NC(=O)[C@@H](NC(=O)OCc1ccccc1)C(C)C)C(C)C)C(=O)CF [UM0141429:01, Z-VDVAD-FMK] (Cbz-VD(OMe)VAD(OMe)-CH2F)",-0.4508
17,"CC[C@H](C)[C@H](NC(=O)[C@H](CCC(=O)OC)NC(=O)[C@@H](NC(=O)OCc1ccccc1)C(C)C)C(=O)N[C@@H](CC(=O)OC)C(=O)CF [UM0141430:01, Z-VEID-FMK] (Cbz-VE(OMe)ID(OMe)-CH2F)",-0.4163
18,"COC[C@@H]1CCCN1S(=O)(=O)c1ccc2c(c1)C(=O)C(=O)N2 [UM0141431:01, Caspase-3/7 Inhibitor I]",2.243
19,"CCCNC(=O)[C@H]1O[C@@H]1C(=O)N[C@H](C(=O)N1CCC[C@H]1C(=O)O)[C@@H](C)CC [UM0141432:01, CA 074]",-0.2737
20,"CC(C)C[C@H](NC(=O)[C@H](CCc1ccccc1)NC(=O)CN1CCOCC1)C(=O)N[C@@H](Cc1ccccc1)C(=O)N[C@@H](CC(C)C)C(=O)[C@@]1(C)CO1 [UM0141433:01, Carfilzomib (PR-171)]",0.3082
21,"COC[C@H](NC(=O)c1cnc(C)s1)C(=O)N[C@@H](COC)C(=O)N[C@@H](Cc1ccccc1)C(=O)[C@@]1(C)CO1 [UM0141434:01, Oprozomib (ONX-0912)]",-0.3511
22,"Cn1cnc2c(F)c(Nc3ccc(Br)cc3F)c(C(=O)NOCCO)cc21 [UM0141435:01, MEK162 (ARRY-162, ARRY-438162)]",13.83
23,"CCN(CC)CCCC(C)Nc1nc(C)cc(Nc2ccc3nc(C)cc(N)c3c2)n1 (stereo not drawn) [UM0141436:01, NSC 23766]",2.521
24,"COc1cc([C@@H]2c3cc4c(cc3[C@@H](O[C@@H]3O[C@@H]5CO[C@@H](C)O[C@H]5[C@H](O)[C@H]3O)[C@H]3COC(=O)[C@H]23)OCO4)cc(OC)c1O [UM0141437:01, Etoposide]",1.839
25,"CC(C)(C)c1cnc(CSc2cnc(NC(=O)C3CCNCC3)s2)o1 [UM0141438:01, SNS-032 (BMS-387032)]",4.184

row,Structure (SMILES),Inh (PKA) [%]
1,"Cn1c(CCCC(=O)O)nc2cc(N(CCCl)CCCl)ccc21 [UM0141439:01, Bendamustine HCl]",-0.1879
2,"C=CC(=O)Nc1ccc2ncnc(Nc3cccc(Br)c3)c2c1 [UM0141440:01, PD168393]",22.44
3,"Cc1ccccc1-n1c(Cn2cnc3c(N)ncnc32)nc2cccc(C)c2c1=O [UM0141441:01, IC-87114]",5.733
4,"Cc1ccc([N+](=O)[O-])cc1S(=O)(=O)N(C)/N=C/c1cnc2ccc(Br)cn12 [UM0141442:01, PIK-75]",46.51
5,"CN1CCN(CCOc2cc(OC3CCOCC3)c3c(Nc4c(Cl)ccc5c4OCO5)ncnc3c2)CC1 [UM0141443:01, Saracatinib (AZD0530)]",2.374
6,"COc1cc(Nc2c(C#N)cnc3cc(OCCCN4CCN(C)CC4)c(OC)cc23)c(Cl)cc1Cl [UM0141444:01, Bosutinib (SKI-606)]",20.21
7,"O=C(NNc1nc2cc(F)ccc2n2cccc12)c1cnccn1 [UM0141448:01, SC 144]",4.683
8,"O=[N+]([O-])c1ccc2c(c1)S(=O)(=O)C=C2 [UM0141450:01, Stattic]",9.361
9,"Cc1cc(N2CCOCC2)cc2[nH]c(-c3c(NC[C@@H](O)c4cccc(Cl)c4)cc[nH]c3=O)nc12 [UM0141451:01, BMS-536924]",41.39
10,"O=S(=O)(c1ccccc1)N(CC(F)(F)F)c1ccc(C(O)(C(F)(F)F)C(F)(F)F)cc1 [UM0141452:01, T0901317]",30.09
11,"Nc1ncnc2c1c(-c1cccc(OCc3ccccc3)c1)cn2[C@H]1C[C@@H](CN2CCC2)C1 [UM0141453:01, NVP-AEW541]",10.76
12,"Cc1[nH]c(/C=C2\C(=O)Nc3ccc(S(=O)(=O)Cc4c(Cl)cccc4Cl)cc32)c(C)c1C(=O)N1CCC[C@@H]1CN1CCCC1 [UM0141454:01, PHA-665752]",72.78
13,"CNCc1cc(-c2ccccc2F)n(S(=O)(=O)c2cccnc2)c1 [UM0141455:01, TAK-438]",1.837
14,"C[C@@H]1C[C@H]2[C@@H]3CCC4=CC(=O)C=C[C@]4(C)[C@@]3(F)[C@@H](O)C[C@]2(C)[C@@]1(O)C(=O)CO [UM0141456:01, Dexamethasone (DHAP)]",0.4412
15,"COCC(=O)NC/C=C/c1ccc2ncnc(Nc3ccc(Oc4ccc(C)nc4)c(C)c3)c2c1 [UM0141457:01, CP-724714]",30.01
16,"C[C@H]1O[C@H](O[C@H]2[C@H](O)[C@@H](O)[C@@H](O[C@H]3[C@H](O)[C@@H](O)C(O)O[C@@H]3CO)O[C@@H]2CO)[C@H](O)[C@@H](O)[C@@H]1N[C@H]1C=C(CO)[C@@H](O)[C@H](O)[C@H]1O (stereo partly drawn) [UM0141458:01, Acarbose]",2.661
17,"NCCC(O)(P(=O)(O)O)P(=O)(O)O [UM0141459:01, Pamidronate Disodium]",0.7087
18,"CC(=O)[C@]1(O)Cc2c(O)c3c(c(O)c2[C@@H](O[C@H]2C[C@H](N)[C@H](O)[C@H](C)O2)C1)C(=O)c1ccccc1C3=O [UM0141460:01, Idarubicin HCl]",47.84
19,"CC(C)(F)C[C@H](N[C@@H](c1ccc(-c2ccc(S(C)(=O)=O)cc2)cc1)C(F)(F)F)C(=O)NC1(C#N)CC1 [UM0141461:01, Odanacatib (MK-0822)]",3.507
20,"Nc1nc(=O)c2c([nH]1)NCC(CNc1ccc(C(=O)N[C@@H](CCC(=O)O)C(=O)O)cc1)N2C=O (stereo partly drawn) [UM0141462:01, Leucovorin Calcium]",1.727
21,"CN[C@H]1C[C@@H](N)[C@H](O)[C@@H](O[C@@H]2O[C@H](CO)[C@H](O)[C@@H]3OC4(O[C@H]23)O[C@H]([C@@H](N)CO)[C@H](O)[C@H](O)[C@H]4O)[C@@H]1O (stereo partly drawn) [UM0141464:01, Hygromycin B]",0.3498
22,"NC[C@H]1O[C@H](O[C@H]2[C@H](O)[C@@H](O[C@H]3O[C@H](CO)[C@@H](O)[C@H](N)[C@H]3O)[C@H](N)C[C@@H]2N)[C@H](O)[C@@H](O)[C@@H]1O [UM0141465:01, Kanamycin Sulfate]",1.064
23,"Cc1ccc(Sc2ccccc2N2CCNCC2)c(C)c1 [UM0141466:01, Vortioxetine (Lu AA21004) HBr]",18.25
24,"CC(=O)N[C@@H](CC(C)C)C(=O)N[C@@H](CC(C)C)C(=O)N[C@H](C=O)CCCNC(=N)N [UM0141467:01, Leupeptin, Microbial]",0.9653
